Activity calls are given as the source filed them. The calls are words filed in the database; no cut-off is given here.
How the values were obtained:
Neutrophil [1] = assay: Inhibition of cell migration in 6-n-[…]-stimulated mouse CD11bpositive Ly6Gpositive neutrophils at 0.01 to 1 uM incubated for 1.5 hrs by flow cytometric analysis; format: functional, cell-based; conditions: dose 0.01-1 µM
[2] = Drug distribution in mouse liver at 5 mg/kg, po administered as single dose and measured after 2 hrs by LC-MS analysis; format: ADME, organism-based; conditions: read-out: Drug uptake
[3] = Drug distribution in mouse brain at 5 mg/kg, po administered as single dose and measured after 2 hrs by LC-MS analysis; format: ADME, organism-based; conditions: read-out: Drug uptake
[4] = biological target: Beta-3 adrenergic receptor (Homo sapiens) (UniProt P13945); assay: Antagonist activity at ARbeta3 (unknown origin) expressed in HEK293 cells co-expressing Galpha16 assessed as inhibition of Isoproterenol induced calcium response upto 100 uM incubated for 10 mins by calcium mobilization assay; format: functional, cell-based
Sequence of Beta-3 adrenergic receptor (Homo sapiens) (P13945 whole entry, looked up): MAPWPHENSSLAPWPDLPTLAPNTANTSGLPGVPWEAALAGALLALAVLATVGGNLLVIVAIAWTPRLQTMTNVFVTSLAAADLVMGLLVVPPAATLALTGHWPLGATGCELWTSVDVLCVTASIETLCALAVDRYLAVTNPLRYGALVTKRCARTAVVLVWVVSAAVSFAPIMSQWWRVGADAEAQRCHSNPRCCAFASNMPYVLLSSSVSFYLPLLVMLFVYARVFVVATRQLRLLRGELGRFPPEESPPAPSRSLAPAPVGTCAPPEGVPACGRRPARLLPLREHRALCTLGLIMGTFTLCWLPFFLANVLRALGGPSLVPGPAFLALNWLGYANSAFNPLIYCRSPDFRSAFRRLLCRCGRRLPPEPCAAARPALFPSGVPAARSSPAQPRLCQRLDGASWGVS

[5] = biological target: G-protein coupled receptor 84 (Mus musculus) (UniProt Q8CIM5); assay: Antagonist activity at mouse GPR84 expressed in HEK293 cells co-expressing Galpha16 assessed as inhibition of 6-OAU induced calcium response incubated for 10 mins by calcium mobilization assay; format: functional, cell-based; conditions: filed as antagonist
Sequence of G-protein coupled receptor 84 (Mus musculus) (Q8CIM5 whole entry): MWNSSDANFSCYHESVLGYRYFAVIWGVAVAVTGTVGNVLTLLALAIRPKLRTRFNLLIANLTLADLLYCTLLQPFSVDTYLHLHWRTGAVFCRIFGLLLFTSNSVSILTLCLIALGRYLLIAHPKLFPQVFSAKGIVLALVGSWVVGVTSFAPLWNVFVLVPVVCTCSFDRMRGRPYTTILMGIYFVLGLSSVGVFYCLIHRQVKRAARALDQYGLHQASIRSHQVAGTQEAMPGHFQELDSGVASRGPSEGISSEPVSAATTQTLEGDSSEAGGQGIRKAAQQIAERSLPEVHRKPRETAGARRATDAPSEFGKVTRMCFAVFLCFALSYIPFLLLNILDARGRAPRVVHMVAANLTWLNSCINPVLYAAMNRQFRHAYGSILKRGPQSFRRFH

[6] = AUClast in ICR mouse at 5 mg/kg, po administered as single dose; format: ADME, organism-based; set-up: dose 5 mg/kg, route po; conditions: in vivo
[7] = Oral bioavailability in ICR mouse at 5 mg/kg administered as single dose; format: ADME, organism-based; conditions: in vivo
[8] = biological target: T1, Alpha-1A adrenergic receptor (Homo sapiens) (UniProt P35348); assay: Antagonist activity at ARalpha1A (unknown origin) expressed in HEK293 cells co-expressing Galpha16 assessed as inhibition of Phenylephrine induced calcium response upto 100 uM incubated for 10 mins by calcium mobilization assay; format: functional, cell-based
T1 sequence (whole entry): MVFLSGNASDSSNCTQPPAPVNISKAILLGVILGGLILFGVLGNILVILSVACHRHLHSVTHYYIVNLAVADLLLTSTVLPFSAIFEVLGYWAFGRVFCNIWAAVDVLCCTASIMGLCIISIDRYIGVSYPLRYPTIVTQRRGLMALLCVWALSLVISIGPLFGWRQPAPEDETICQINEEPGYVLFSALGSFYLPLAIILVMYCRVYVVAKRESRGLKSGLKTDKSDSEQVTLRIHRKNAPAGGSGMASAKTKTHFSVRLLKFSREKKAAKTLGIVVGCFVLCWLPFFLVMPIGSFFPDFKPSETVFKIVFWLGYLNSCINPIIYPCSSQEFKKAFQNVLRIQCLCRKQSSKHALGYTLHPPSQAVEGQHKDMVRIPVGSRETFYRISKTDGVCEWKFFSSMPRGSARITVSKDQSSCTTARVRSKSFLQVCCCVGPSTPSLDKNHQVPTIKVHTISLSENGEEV

[9] = biological target: T2, Glucose-dependent insulinotropic receptor (Homo sapiens) (UniProt Q8TDV5); assay: Antagonist activity at GPR119 (unknown origin) expressed in HEK293 cells assessed as inhibition of AR231453 induced […] upto 100 uM pre-incubated for 10 mins followed by AR231453 addition and measured after 15 mins by cAMP detection assay; format: functional, cell-based; conditions: time 25.0 min
T2 sequence (whole entry): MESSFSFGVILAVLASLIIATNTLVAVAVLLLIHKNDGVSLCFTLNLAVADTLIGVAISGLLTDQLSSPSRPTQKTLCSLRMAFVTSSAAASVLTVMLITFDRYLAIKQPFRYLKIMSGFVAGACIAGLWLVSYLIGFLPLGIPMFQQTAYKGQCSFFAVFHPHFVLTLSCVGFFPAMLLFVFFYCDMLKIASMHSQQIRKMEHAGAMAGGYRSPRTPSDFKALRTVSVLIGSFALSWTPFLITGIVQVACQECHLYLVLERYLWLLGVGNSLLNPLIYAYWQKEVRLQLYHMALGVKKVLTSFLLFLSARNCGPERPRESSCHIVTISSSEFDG

[10] = biological target: D(1A) dopamine receptor (Homo sapiens) (UniProt P21728); assay: Antagonist activity at DRD1 (unknown origin) expressed in HEK293 cells co-expressing Galpha16 assessed as inhibition of dopamine induced calcium response upto 100 uM incubated for 10 mins by calcium mobilization assay; format: functional, cell-based
Sequence of D(1A) dopamine receptor (Homo sapiens) (P21728 whole entry): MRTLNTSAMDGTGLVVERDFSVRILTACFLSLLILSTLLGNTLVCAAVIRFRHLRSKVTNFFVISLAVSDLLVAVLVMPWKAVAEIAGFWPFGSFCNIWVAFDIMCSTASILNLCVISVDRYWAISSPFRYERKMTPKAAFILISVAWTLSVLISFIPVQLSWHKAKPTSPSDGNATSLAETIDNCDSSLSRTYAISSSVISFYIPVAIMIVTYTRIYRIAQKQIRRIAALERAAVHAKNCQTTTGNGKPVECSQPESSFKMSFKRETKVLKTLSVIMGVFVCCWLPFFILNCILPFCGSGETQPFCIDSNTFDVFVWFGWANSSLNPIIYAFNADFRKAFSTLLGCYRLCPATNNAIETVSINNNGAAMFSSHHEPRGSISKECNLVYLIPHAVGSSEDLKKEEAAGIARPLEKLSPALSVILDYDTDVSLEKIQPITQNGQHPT

[11] = Drug distribution in mouse liver at 5 mg/kg, po administered as single dose and measured after 8 hrs by LC-MS analysis; format: ADME, organism-based; conditions: read-out: Drug uptake
[12] = biological target: Delta-type opioid receptor (Homo sapiens) (UniProt P41143); assay: Antagonist activity at DOR (unknown origin) expressed in CHO-K1 cells co-expressing Galpha16 assessed as inhibition of DPDPE induced calcium response upto 100 uM incubated for 10 mins by calcium mobilization assay; format: functional, cell-based
Sequence of Delta-type opioid receptor (Homo sapiens) (P41143 whole entry): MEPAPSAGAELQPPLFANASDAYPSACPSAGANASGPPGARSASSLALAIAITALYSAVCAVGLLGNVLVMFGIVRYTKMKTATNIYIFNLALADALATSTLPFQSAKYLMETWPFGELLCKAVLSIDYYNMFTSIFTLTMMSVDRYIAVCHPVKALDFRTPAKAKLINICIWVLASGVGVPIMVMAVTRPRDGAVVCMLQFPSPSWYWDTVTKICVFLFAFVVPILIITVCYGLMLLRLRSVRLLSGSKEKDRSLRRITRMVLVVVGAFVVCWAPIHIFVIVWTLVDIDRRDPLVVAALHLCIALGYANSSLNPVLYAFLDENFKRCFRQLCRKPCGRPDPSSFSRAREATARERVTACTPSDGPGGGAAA

Monocyte [13] = assay: Inhibition of cell migration in 6-n-[…]-stimulated mouse CD11bpositive Ly6Cpositive monocyte at 0.01 to 1 uM incubated for 1.5 hrs by flow cytometric analysis; format: functional, cell-based; conditions: dose 0.01-1 µM
[14] = biological target: Free fatty acid receptor 1 (Homo sapiens) (UniProt O14842); assay: Antagonist activity at GPR40 (unknown origin) expressed in HEK293 cells co-expressing Galpha16 assessed as inhibition of TAK-875 induced calcium response upto 100 uM incubated for 10 mins by calcium mobilization assay; format: functional, cell-based
Sequence of Free fatty acid receptor 1 (Homo sapiens) (O14842 whole entry): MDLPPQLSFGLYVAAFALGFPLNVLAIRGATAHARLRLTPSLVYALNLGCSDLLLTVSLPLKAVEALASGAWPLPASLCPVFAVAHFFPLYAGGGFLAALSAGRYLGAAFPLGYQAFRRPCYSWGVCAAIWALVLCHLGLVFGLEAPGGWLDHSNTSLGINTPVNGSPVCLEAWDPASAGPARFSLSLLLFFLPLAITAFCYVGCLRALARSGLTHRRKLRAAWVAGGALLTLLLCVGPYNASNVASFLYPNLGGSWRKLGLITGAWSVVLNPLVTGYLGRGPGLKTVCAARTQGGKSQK

Neutrophil [15] = assay: Inhibition of cell migration in 3-hydroxydodecanoic acid-stimulated mouse CD11bpositive Ly6Gpositive neutrophils at 0.01 to 1 uM incubated for 1.5 hrs by flow cytometric analysis; format: functional, cell-based; conditions: dose 0.01-1 µM
[16] = Drug distribution in mouse lung at 5 mg/kg, po administered as single dose and measured after 0.5 hrs by LC-MS analysis; format: ADME, organism-based; conditions: read-out: Drug uptake
[17] = Drug distribution in mouse plasma at 5 mg/kg, po administered as single dose and measured after 8 hrs by LC-MS analysis; format: ADME, organism-based; conditions: read-out: Drug uptake
[18] = biological target: Beta-1 adrenergic receptor (Homo sapiens) (UniProt P08588); assay: Antagonist activity at ARbeta1 (unknown origin) expressed in HEK293 cells co-expressing Galpha16 assessed as inhibition of Isoproterenol induced calcium response upto 100 uM incubated for 10 mins by calcium mobilization assay; format: functional, cell-based
Sequence of Beta-1 adrenergic receptor (Homo sapiens) (P08588 whole entry, looked up): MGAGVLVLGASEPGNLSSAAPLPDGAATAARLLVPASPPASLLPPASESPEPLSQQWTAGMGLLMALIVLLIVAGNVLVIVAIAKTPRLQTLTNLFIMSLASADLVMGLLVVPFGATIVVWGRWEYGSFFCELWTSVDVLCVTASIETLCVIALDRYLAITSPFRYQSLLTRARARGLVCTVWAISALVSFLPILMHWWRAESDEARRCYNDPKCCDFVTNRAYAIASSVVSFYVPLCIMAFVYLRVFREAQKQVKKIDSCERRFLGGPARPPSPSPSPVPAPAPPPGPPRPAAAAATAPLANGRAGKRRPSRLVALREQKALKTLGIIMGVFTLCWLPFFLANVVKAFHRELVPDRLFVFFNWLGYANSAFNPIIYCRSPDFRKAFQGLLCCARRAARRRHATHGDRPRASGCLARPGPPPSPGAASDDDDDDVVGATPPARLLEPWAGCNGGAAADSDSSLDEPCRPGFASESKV

Monocyte [19] = assay: Inhibition of cell migration in 3-hydroxydodecanoic acid-stimulated mouse CD11bpositive Ly6Cpositive monocytes at 0.01 to 1 uM incubated for 1.5 hrs by flow cytometric analysis; format: functional, cell-based; conditions: dose 0.01-1 µM
[20] = biological target: T3, Free fatty acid receptor 4 (Homo sapiens) (UniProt Q5NUL3); assay: Antagonist activity at GPR120 (unknown origin) expressed in HEK293 cells co-expressing Galpha16 assessed as inhibition of TUG-981 induced calcium response upto 100 uM incubated for 10 mins by calcium mobilization assay; format: functional, cell-based
T3 sequence (whole entry): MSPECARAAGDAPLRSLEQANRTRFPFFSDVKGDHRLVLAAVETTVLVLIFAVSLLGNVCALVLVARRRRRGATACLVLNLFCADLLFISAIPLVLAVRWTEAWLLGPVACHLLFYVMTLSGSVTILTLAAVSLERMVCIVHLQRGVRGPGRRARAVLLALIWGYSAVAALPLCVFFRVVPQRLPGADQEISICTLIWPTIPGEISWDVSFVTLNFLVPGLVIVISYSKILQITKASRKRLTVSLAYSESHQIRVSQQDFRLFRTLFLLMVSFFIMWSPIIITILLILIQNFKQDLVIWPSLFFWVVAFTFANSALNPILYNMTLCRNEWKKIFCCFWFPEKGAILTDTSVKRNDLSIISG

[21] = Drug distribution in mouse lung at 5 mg/kg, po administered as single dose and measured after 2 hrs by LC-MS analysis; format: ADME, organism-based; conditions: read-out: Drug uptake

O=P([O-])(OC1=Cc2c(Cl)cccc2Sc2ccccc21)OC1=Cc2c(Cl)cccc2Sc2ccccc21.[Na+]
inhibition (Neutrophil [1]): Active | concentration at 2 h [2]: 1960 ng/g | concentration at 2 h [3]: 6.3 ng/g | inhibition [4]: inactive | inhibition [5]: Active | AUC(0-t) [6]: 502 ng·h/mL | bioavailability [7]: 12% | inhibition [8]: inactive | inhibition [9]: inactive | inhibition [10]: inactive | concentration at 8 h [11]: 1180 ng/g | inhibition [12]: inactive | inhibition (Monocyte [13]): Active | inhibition [14]: inactive | inhibition (Neutrophil [15]): Active | concentration at 0.5 h [16]: 18.6 ng/g | concentration at 8 h [17]: 50.7 ng/mL | inhibition [18]: inactive | inhibition (Monocyte [19]): Active | inhibition [20]: inactive | concentration at 2 h [21]: 60.5 ng/g
